Reference: the NIST ThermoML archive (doi:10.1016/j.fluid.2017.06.024)

Experiment: molar heat capacity at constant pressure
Conditions: 100 kPa, Liquid, DSC

CC(C)OC(C)C [diisopropyl ether]
Conditions | molar heat capacity at constant pressure [J/K/mol]
290.5 K | 210.58
295.44 K | 212.42
300.38 K | 214.46
305.32 K | 216.51
310.26 K | 218.55
315.19 K | 220.6
320.13 K | 222.64
325.07 K | 224.68
330.01 K | 226.93
334.95 K | 229.08
339.89 K | 231.22
